Results on one compound are retold here after patent US8795611B2 (priority 2009, dated 2014).

Values after ≈ are worked out from the molar mass of the structure shown.

Data set [1] is described as follows: Distribution coefficient, single contact in tubes, 1.5 mol/L DEHiBA in Isane IP 185 vs nitric acid solutions (ICP-AES). Type of data set: physicochemical. The note with it: HNO3 0.5 to 4 M, 25° C.
Assay in data set [2]: as above
As to conditions: HNO3 0.5 to 4 M, 25° C. Type of data set: physicochemical. This is another data set of the same source.

Assay in data set [3]: as above
It counts as physicochemical. The note with it: nitric acid 4 mol/L, regardless of the uranium concentration, 25° C.

Assay in data set [4]: as above
It counts as physicochemical. As to conditions: HNO3 0.5 to 4 M, 25° C. The source holds these as a separate data set.

Assay in data set [5]: as above
Type of data set: physicochemical. The note with it: HNO3 0.5 to 4 M, 25° C. This is another data set of the same source.

The format of data set [6] is physicochemical. The note with it: 1.5 mol/L DEHiBA in Isane IP 185, HNO3 0.5 to 4 M, 25° C.
The format of data set [7] is physicochemical. The note with it: 1.5 mol/L DEHiBA in Isane IP 185; aqueous 360 g/L uranium, 2 mol/L nitric acid; even after uranium depletion; 25° C.
A short description of data set [8]: Solubility of DEHiBA in an aqueous phase by total organic carbon (TOC) measurement, test in mixers-decanters. It counts as physicochemical. As to conditions: for DEHiBA equivalent: assumes all organic carbon stems from the extractant. From the text:
The solubility of DEHiBA in an aqueous phase was appreciated by conducting a test in mixers-decanters similar to the one described in Example 1 hereinbefore and by measuring the total organic carbon (or TOC) present in the aqueous phase exiting the battery 11 (called <<extraction raffinate>> hereafter) on the one hand and, in the aqueous phase exiting the battery 13 and containing the purified uranyl nitrate (called <<U production>> hereafter) on the other hand.
The total organic carbon was measured by means of a thermal TOC-meter in the aqueous phases as obtained after decantation, i.e. without submitting these phases to any centrifugation.

The mark [9] stands for this setting: with or without 30 g/L uranium, 1 hour.

Take `CCCCC(CC)CN(CC(CC)CCCC)C(=O)C(C)C` (stereo not drawn) [DEHiBA, N,N-di-(2-ethylhexyl)isobutyramide]: in data set [1], the “U/impurities separation factor (zirconium)” value is “greater than 10,000”. Besides, the “distribution coefficient of zirconium” value in data set [1] (setting [9]) is on record as “less than 10^−3”. For the same compound, the “U/impurities separation factor (molybdenum)” value in data set [2] is recorded as “greater than 10,000”. Besides, the “distribution coefficient of molybdenum” value in data set [2] (setting [9]) is “less than 10^−3”. For the same compound, the “distribution coefficient of thorium(IV)” value in data set [3] is “less than 5.10^−3”. In data set [4], the “U/impurities separation factor (vanadium)” value is recorded as “greater than 10,000”. Further, the “distribution coefficient of vanadium” value in data set [4] (setting [9]) is listed as “less than 10^−3”. For the same compound, the “U/impurities separation factor (calcium)” value in data set [5] is “greater than 10,000”. Also, in data set [5] (setting [9]), the “distribution coefficient of calcium” value was “less than 10^−3”. Also, the “U/impurities separation factor (iron)” value in data set [6] is recorded as “greater than 10,000”. Also, in data set [6] (setting [9]), the “distribution coefficient of iron” value is reported as “less than 10^−3”. Also, the “distribution coefficient of thorium 234, DTh” value in data set [7] is “less than 10^−2”. Also, the DEHiBA equivalent amounted to 0.00019 mol/L in data set [8] (U production, HNO3 0.34 mol/L) and 0.00013 mol/L in data set [8] (extraction raffinate, HNO3 3.1 mol/L). Further, the solubility in data set [8] (aqueous phase after decantation, under the conditions of the test, includes diluent (TPH) and carried-away organic phase, read-out: DEHiBA soluble in an aqueous phase) was 40 to 60 µg/mL (≈ 128 to 193 µM).
